In BindingDB's records for PubMed 8093723 (Dainippon Pharmaceutical, 1993):

How the values were obtained:
[1] = target: Gamma-aminobutyric acid (GABA) B receptor 1 (Rattus norvegicus, UniProt Q6MFX8)
D(2) dopamine receptor = D(2) dopamine receptor (Rattus norvegicus, UniProt P61169)
[2] = target: Sigma non-opioid intracellular receptor 1 (Cavia porcellus, UniProt Q60492)
[3] = target: Gamma-aminobutyric acid receptor subunit alpha-1 (Rattus norvegicus, UniProt P62813)
[4] = target: T1, Muscarinic acetylcholine receptor M2 (Rattus norvegicus, UniProt P10980)
T1 sequence (P10980 whole entry): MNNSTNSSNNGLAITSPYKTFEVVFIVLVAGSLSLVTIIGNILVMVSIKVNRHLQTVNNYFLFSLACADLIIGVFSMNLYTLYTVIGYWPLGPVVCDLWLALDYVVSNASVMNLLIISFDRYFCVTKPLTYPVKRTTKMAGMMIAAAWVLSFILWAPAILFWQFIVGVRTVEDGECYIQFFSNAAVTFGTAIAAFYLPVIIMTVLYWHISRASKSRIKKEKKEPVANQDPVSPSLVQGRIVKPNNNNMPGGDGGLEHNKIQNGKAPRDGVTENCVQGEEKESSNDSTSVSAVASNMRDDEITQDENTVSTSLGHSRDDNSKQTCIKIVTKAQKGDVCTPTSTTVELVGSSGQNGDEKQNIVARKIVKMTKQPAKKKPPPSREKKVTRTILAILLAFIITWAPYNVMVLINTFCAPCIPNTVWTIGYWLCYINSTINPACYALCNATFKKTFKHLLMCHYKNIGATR

D(1A) dopamine receptor = D(1A) dopamine receptor (Rattus norvegicus, UniProt P18901)
Histamine H1 receptor = Histamine H1 receptor (Rattus norvegicus, UniProt P31390)
[5] = target: Beta-2 adrenergic receptor (Rattus norvegicus, UniProt P10608)
Sequence of Beta-2 adrenergic receptor (P10608 whole entry): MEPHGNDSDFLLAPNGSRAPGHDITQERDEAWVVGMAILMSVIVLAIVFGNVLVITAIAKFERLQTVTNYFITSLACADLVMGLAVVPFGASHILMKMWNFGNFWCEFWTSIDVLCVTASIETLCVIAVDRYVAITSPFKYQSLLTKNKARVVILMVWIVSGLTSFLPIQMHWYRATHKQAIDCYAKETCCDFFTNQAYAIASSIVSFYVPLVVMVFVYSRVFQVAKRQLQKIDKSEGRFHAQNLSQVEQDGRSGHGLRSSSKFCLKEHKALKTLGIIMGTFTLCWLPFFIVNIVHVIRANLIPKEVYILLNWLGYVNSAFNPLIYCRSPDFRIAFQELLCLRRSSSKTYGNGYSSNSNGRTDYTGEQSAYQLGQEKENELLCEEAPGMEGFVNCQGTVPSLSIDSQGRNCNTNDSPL

Sequence of Gamma-aminobutyric acid receptor subunit alpha-1 (P62813 whole entry): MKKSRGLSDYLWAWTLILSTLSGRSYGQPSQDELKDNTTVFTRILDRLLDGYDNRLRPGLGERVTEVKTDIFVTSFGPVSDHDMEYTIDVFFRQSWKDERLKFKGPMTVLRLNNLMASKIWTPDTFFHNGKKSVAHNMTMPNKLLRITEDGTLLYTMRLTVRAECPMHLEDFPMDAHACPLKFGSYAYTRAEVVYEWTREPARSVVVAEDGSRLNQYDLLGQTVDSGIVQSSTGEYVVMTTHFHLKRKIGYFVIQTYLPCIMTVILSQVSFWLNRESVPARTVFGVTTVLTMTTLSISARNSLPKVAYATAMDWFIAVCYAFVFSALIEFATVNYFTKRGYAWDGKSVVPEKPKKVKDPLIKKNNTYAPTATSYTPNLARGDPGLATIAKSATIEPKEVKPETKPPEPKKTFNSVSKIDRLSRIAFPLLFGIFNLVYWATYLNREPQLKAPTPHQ
Sequence of Gamma-aminobutyric acid (GABA) B receptor 1 (Q6MFX8 whole entry): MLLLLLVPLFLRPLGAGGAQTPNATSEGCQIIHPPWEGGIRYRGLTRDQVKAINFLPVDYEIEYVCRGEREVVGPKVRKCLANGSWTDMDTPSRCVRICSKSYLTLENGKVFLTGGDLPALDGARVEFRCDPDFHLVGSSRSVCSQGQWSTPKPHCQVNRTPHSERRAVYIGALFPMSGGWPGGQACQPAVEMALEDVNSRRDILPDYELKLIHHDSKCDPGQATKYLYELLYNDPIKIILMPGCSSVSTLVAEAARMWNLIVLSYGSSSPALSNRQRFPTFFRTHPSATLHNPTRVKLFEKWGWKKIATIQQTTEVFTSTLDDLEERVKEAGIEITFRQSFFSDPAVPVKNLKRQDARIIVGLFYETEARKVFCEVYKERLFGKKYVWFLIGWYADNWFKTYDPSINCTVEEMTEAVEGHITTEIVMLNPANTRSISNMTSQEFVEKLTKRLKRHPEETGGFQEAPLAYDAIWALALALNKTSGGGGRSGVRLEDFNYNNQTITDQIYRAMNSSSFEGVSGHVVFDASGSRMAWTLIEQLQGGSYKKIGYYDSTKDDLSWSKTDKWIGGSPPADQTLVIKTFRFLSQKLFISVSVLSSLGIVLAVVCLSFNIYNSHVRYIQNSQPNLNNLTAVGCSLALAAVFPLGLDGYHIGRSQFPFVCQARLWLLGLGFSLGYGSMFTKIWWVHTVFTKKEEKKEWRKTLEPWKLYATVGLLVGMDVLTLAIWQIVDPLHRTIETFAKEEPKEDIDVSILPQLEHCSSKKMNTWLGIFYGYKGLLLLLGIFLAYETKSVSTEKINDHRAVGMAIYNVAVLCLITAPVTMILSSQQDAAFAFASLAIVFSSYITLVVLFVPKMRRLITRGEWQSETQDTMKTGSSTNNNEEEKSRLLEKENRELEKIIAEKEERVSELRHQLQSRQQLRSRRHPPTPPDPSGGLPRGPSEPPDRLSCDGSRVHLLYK
Sequence of D(2) dopamine receptor (P61169 whole entry): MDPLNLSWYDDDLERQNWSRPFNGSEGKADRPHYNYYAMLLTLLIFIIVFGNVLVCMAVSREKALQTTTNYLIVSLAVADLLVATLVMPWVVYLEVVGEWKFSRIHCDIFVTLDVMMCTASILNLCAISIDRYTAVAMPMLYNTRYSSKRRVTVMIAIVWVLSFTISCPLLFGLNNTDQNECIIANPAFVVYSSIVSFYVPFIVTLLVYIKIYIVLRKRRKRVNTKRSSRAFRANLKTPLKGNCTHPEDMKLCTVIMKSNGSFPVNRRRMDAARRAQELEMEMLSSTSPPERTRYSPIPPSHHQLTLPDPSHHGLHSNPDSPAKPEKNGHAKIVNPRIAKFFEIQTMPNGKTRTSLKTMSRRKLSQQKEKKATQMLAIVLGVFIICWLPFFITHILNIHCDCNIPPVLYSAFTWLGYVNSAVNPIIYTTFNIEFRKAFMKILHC
Sequence of Histamine H1 receptor (P31390 whole entry): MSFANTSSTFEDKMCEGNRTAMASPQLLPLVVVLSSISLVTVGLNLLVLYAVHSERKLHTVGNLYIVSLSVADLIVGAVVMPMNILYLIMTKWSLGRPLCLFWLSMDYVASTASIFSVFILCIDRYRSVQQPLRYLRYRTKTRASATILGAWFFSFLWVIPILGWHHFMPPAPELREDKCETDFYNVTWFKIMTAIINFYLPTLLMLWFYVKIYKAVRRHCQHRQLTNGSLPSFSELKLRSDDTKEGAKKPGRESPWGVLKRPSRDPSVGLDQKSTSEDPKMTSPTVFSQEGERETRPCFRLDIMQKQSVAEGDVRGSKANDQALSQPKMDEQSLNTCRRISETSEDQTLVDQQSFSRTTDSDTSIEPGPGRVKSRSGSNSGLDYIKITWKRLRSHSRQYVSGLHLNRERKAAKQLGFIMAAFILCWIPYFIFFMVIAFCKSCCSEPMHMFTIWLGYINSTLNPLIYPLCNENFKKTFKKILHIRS
Sequence of Sigma non-opioid intracellular receptor 1 (Q60492 whole entry): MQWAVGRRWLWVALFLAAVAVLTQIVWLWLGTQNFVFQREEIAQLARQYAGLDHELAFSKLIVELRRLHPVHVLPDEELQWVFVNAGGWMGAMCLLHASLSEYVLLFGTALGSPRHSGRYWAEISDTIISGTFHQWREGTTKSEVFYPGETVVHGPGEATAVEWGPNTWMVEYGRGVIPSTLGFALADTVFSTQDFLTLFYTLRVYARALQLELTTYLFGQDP
Sequence of D(1A) dopamine receptor (P18901 whole entry): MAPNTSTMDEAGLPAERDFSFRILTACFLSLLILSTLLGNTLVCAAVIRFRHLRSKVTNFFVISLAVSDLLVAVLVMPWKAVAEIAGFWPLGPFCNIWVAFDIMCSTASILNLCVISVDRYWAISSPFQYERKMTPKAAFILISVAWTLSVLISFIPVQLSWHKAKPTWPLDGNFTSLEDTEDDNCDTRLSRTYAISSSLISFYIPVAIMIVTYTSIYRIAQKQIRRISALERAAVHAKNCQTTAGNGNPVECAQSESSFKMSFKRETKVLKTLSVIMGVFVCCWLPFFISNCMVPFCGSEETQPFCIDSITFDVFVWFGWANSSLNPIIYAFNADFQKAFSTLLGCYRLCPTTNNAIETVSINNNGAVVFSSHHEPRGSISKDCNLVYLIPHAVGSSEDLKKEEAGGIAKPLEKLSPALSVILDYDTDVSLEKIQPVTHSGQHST

Ki [1]: > 10000 nM | Ki (D(2) dopamine receptor): 14.8 nM | Ki [2]: 286 nM | Ki [3]: > 10000 nM | Ki [4]: 2300 nM | Ki (D(1A) dopamine receptor): 2870 nM | Ki (Histamine H1 receptor): 3010 nM | Ki [5]: > 10000 nM
SMILES: CCN1CCN(c2cc(-c3ccc(F)cc3)c3c(n2)CCCCCC3)CC1 [AD-5423]
